# Source: ChEMBL document CHEMBL1857833, “Screening and optimization of specific chemical series against human African Trypanosomiasis (HAT)”
# What was measured:
# [1] = DNDI: Cytotoxicity against L929 mouse fibroblasts, 72 hour.; format: toxicity, cell-based; conditions: mouse, L929 mouse fibroblasts
# [2] = test system: Trypanosoma brucei; test: DNDI: Inhibition of Human African Trypanosomiasis, SBRI 427, in vitro; format: functional, organism-based
# [3] = mouse, microsomes, 1 µM
# Description: DNDI: in vitro intrinsic clearance in mouse liver microsomes at a concentration of 1uM
# [4] = in vitro; conditions: mouse, liver microsomes, t (1 / 2)
# Description: DNDI: half life in mouse liver microsomes at a concentration of 1uM
# [5] = DNDI: Cytotoxicity against L929 mouse fibroblasts, CYTO-SP, 24 hour; format: toxicity, cell-based; conditions: mouse, L929 mouse fibroblasts
# [6] = Trypanosoma brucei, SBRI 427, read-out: IC50
Structure (SMILES),"IC50 [2, 6]",CLint in vitro [3],half-life at 1 µM [4],IC50 [2],IC50 at 72 h [1],IC50 at 24 h [5]
Cc1ccc(Cc2ccccc2/C(=N/O)NC2CCCCC2)cc1,1.17 µg/mL,318 µL/min/mg,3 min,–,3.48 µg/mL,–
C[C@H](NCc1coc(-c2ccc(Cl)cc2)n1)C1CCCCC1,2.29 µg/mL,–,–,–,< 3.13 µg/mL,> 50 µg/mL
CCOCCCNC(c1nc(-c2ccccc2)c(N2CCCCC2)o1)C(C)CC (configuration not stated),2.72 µg/mL,255 µL/min/mg,3 min,–,4.44 µg/mL,–
Clc1ccc(-c2nc(CNc3ccccc3)co2)cc1,> 5 µg/mL,–,–,–,10.5 µg/mL,> 50 µg/mL
CCCCc1ccc(-c2nc(CNCC)co2)cc1,0.89 µg/mL,76 µL/min/mg,11 min,–,5.42 µg/mL,–
CCCCCC(C)NCc1coc(-c2cc(F)ccc2F)n1 (configuration not stated),2.69 µg/mL,–,–,–,13.2 µg/mL,36 µg/mL
C[C@@H]1[C@H]2C[C@@H](C[C@H]1NCc1coc(-c3sccc3Cl)n1)C2(C)C,> 5 µg/mL,–,–,–,> 50 µg/mL,> 50 µg/mL
O/N=C(/NC1CCCCC1)c1cccnc1Oc1ccc(F)cc1,1.4 µg/mL,389 µL/min/mg,2 min,–,> 10 µg/mL,–
CCCCCC(C)NCc1ccccc1-c1ccccc1 (configuration not stated),1.35 µg/mL,–,–,–,4.68 µg/mL,> 50 µg/mL
Clc1ccsc1-c1nc(CNC2CCCCCC2)co1,> 5 µg/mL,–,–,–,11.8 µg/mL,> 50 µg/mL
c1cc(-c2nc(CNC3CCCCCC3)co2)ccc1OC1CCCCC1,0.43 µg/mL,11 µL/min/mg,78 min,–,1.29 µg/mL,–
CCCCCC(C)NCc1coc(-c2cccc(OC(F)(F)F)c2)n1 (configuration not stated),1.45 µg/mL,–,–,–,6.48 µg/mL,> 50 µg/mL
CCCCCC(C)NCc1coc(-c2ccc(F)c(F)c2)n1 (configuration not stated),1.74 µg/mL,–,–,–,6.34 µg/mL,37 µg/mL
O/N=C(\NC1CCCCC1)c1ccccc1Cc1ccccc1,1.19 µg/mL,381 µL/min/mg,2 min,–,4.57 µg/mL,–
CCCCCC(C)NCc1coc(-c2ccc(F)cc2F)n1 (configuration not stated),2.97 µg/mL,–,–,–,12.4 µg/mL,> 50 µg/mL
CCCCCC(C)NCc1nc(-c2ccccc2)no1 (configuration not stated),> 5 µg/mL,–,–,–,30.8 µg/mL,50 µg/mL
CN(Cc1coc(-c2ccc(Cl)cc2)n1)C1CCCCC1,2.7 µg/mL,–,–,–,11.4 µg/mL,> 50 µg/mL
CCCCCC(C)NCc1csc(-c2ccccc2)n1 (configuration not stated),2.64 µg/mL,–,–,–,4.45 µg/mL,18 µg/mL
COc1ccc(/C(=N/O)Nc2cccc(-c3ccccc3)c2)cc1,–,66 µL/min/mg,13 min,–,> 10 µg/mL,–
Clc1ccc(-c2nc(CN3CCCCC3)co2)cc1,> 5 µg/mL,–,–,–,34.4 µg/mL,> 50 µg/mL
CCCCCC(C)NCc1cc(-c2ccccc2)on1 (configuration not stated),5 µg/mL,–,–,–,12.9 µg/mL,32 µg/mL
CCc1ccc(Oc2ncccc2/C(=N\O)NC2CCCC[C@H]2N)cc1 (some centres not stated),> 5 µg/mL,2 µL/min/mg,353 min,–,> 10 µg/mL,–

Structure (SMILES),"IC50 [2, 6]",CLint in vitro [3],half-life at 1 µM [4],IC50 [2],IC50 at 72 h [1],IC50 at 24 h [5]
CCCCCC(C)NCc1coc(-c2ccc(C(F)(F)F)cc2)n1 (configuration not stated),1.63 µg/mL,–,–,–,3.55 µg/mL,> 50 µg/mL
CCCCCC(C)NCc1cc(-c2ccccc2)n(C)n1 (configuration not stated),4.05 µg/mL,–,–,–,12.8 µg/mL,50 µg/mL
CC(C)Oc1ccc(-c2nc(CNC[C@@H]3CC[C@H]4C[C@@H]3C4(C)C)co2)cc1,1.06 µg/mL,45 µL/min/mg,19 min,–,1.36 µg/mL,–
CCCCCC(C)NCc1ccc(-c2ccccc2)s1 (configuration not stated),1.8 µg/mL,–,–,–,7.16 µg/mL,23 µg/mL
CCCCCC(C)NCc1coc(-c2ccc(OC(F)(F)F)cc2)n1 (configuration not stated),1.11 µg/mL,–,–,–,3.56 µg/mL,> 50 µg/mL
CCCCCC(C)NCc1coc(-c2cccc(F)c2F)n1 (configuration not stated),4.08 µg/mL,–,–,–,10.7 µg/mL,> 50 µg/mL
CCCCC[C@@H](C)NCc1coc(-c2ccc(Cl)cc2)n1,0.92 µg/mL,–,–,–,3.18 µg/mL,> 50 µg/mL
CCCCc1ccc(-c2nc(CNCc3ccc(OC)cc3)co2)cc1,–,16 µL/min/mg,53 min,–,3.13 µg/mL,–
CCCCCC(C)NCc1coc(-c2ccc(F)cc2)n1 (configuration not stated),2.71 µg/mL,–,–,–,7.1 µg/mL,17 µg/mL
CCCCCC(C)OCc1coc(-c2ccccc2)n1 (configuration not stated),> 5 µg/mL,–,–,–,27.7 µg/mL,> 50 µg/mL
CCCCC[C@H](C)NCc1coc(-c2ccc(Cl)cc2)n1,1.76 µg/mL,–,–,–,7.01 µg/mL,37 µg/mL
CCCCC[C@@H](C)N(Cc1coc(-c2ccc(Cl)cc2)n1)Cc1coc(-c2ccc(Cl)cc2)n1,> 5 µg/mL,–,–,–,> 50 µg/mL,> 50 µg/mL
CCCCCC(C)NCc1coc(-c2cc3ccccc3s2)n1 (configuration not stated),1.36 µg/mL,–,–,–,3.46 µg/mL,> 50 µg/mL
Cc1ccc(/C(=N/O)NC2CCCCC2)c(Oc2c(F)cccc2F)n1,1.05 µg/mL,255 µL/min/mg,3 min,–,> 10 µg/mL,–
Clc1ccc(-c2nc(CNC3CC4CCC3C4)co2)cc1 (configuration not stated),2.81 µg/mL,–,–,–,3.47 µg/mL,40.7 µg/mL
Cc1ccc(/C(=N/O)Nc2cccc(F)c2)c(Oc2ccc(C(C)(C)C)cc2)n1,0.32 µg/mL,31.75 µL/min/mg,26.8 min,–,5.39 µg/mL,–
CCCCCC(C)NCc1cccc(-c2ccccc2)c1 (configuration not stated),0.81 µg/mL,–,–,–,3.39 µg/mL,> 50 µg/mL
CCCCc1ccc(-c2nc(CNC(C)CC)co2)cc1 (configuration not stated),0.74 µg/mL,42 µL/min/mg,20 min,–,2.75 µg/mL,–
C[C@@H](NCc1coc(-c2ccc(Cl)cc2)n1)C1CCCCC1,1.74 µg/mL,–,–,–,< 3.13 µg/mL,> 50 µg/mL
CCCCCC(C)NCc1coc(-c2ccc(SC(F)(F)F)cc2)n1 (configuration not stated),1.12 µg/mL,–,–,–,3.64 µg/mL,> 50 µg/mL
CCCCCC(C)NCc1ccc(-c2ccccc2)o1 (configuration not stated),3.62 µg/mL,–,–,–,7.14 µg/mL,32 µg/mL
CCCCCC(C)NCc1coc(-c2ccccc2F)n1 (configuration not stated),1.82 µg/mL,–,–,–,3.59 µg/mL,13 µg/mL

# The next lines start with results.
"IC50 [2, 6]",CLint in vitro [3],half-life at 1 µM [4],IC50 [2],Structure (SMILES),IC50 at 72 h [1],IC50 at 24 h [5]
2.08 µg/mL,–,–,–,CCCC(CCC)NCc1coc(-c2ccc(Cl)cc2)n1,5.72 µg/mL,38.4 µg/mL
0.93 µg/mL,367 µL/min/mg,2 min,–,O/N=C(/NC1CCCCC1)c1cccnc1Oc1ccc(Cl)cc1,> 10 µg/mL,–
> 5 µg/mL,–,–,–,Clc1ccsc1-c1nc(CNC2[C@H]3C[C@@H]4C[C@@H](C[C@H]2C4)C3)co1 (some centres not stated),10.6 µg/mL,> 50 µg/mL
1.14 µg/mL,14 µL/min/mg,63 min,–,CCCCCC(C)NCc1coc(-c2cccc(Oc3ccccc3)c2)n1 (configuration not stated),1.76 µg/mL,–
> 5 µg/mL,–,–,–,Clc1ccc(-c2nc(CN[C@]34C[C@H]5C[C@H](C[C@H](C5)C3)C4)co2)cc1,37.6 µg/mL,> 50 µg/mL
> 5 µg/mL,–,–,–,CCCCCC(C)NC(=O)c1coc(-c2ccccc2)n1 (configuration not stated),27.2 µg/mL,> 50 µg/mL
> 5 µg/mL,–,–,–,CCCCCC(C)NCc1noc(-c2ccccc2)n1 (configuration not stated),30.7 µg/mL,50 µg/mL
1.02 µg/mL,–,–,–,CC1(C)[C@H]2CC[C@@H](CNCc3ccc(-c4ccccc4)s3)[C@@H]1C2,6.63 µg/mL,> 50 µg/mL
4.78 µg/mL,–,–,–,Clc1ccc(-c2nc(CNC3CCCC3)co2)cc1,12.9 µg/mL,> 50 µg/mL
> 5 µg/mL,–,–,–,CC1(C)[C@H]2CC[C@@H](CNCc3coc(-c4sccc4Cl)n3)[C@@H]1C2,> 50 µg/mL,> 50 µg/mL
2.22 µg/mL,50 µL/min/mg,17 min,–,CCCCc1ccc(-c2nc(CNC(C)C)co2)cc1,5.7 µg/mL,–
0.29 µg/mL,–,–,0.33 µg/mL,COc1ccc(Oc2ncccc2/C(=N/O)NC2CCCCC2)cc1,> 10 µg/mL,> 50 µg/mL
1.71 µg/mL,–,–,–,CCCCCC(C)NCc1coc(-c2cc(F)cc(F)c2)n1 (configuration not stated),7.08 µg/mL,42 µg/mL
1.86 µg/mL,–,–,–,Clc1ccc(-c2nc(CNC3CCCCC3)co2)cc1,6.85 µg/mL,> 50 µg/mL
3.38 µg/mL,–,–,–,CCCCCC(C)NCc1cc(-c2ccccc2)nn1C (configuration not stated),12.7 µg/mL,50 µg/mL
4.83 µg/mL,–,–,–,CCCCCC(C)NCc1coc(-c2c(F)cccc2F)n1 (configuration not stated),18.7 µg/mL,> 50 µg/mL
1.14 µg/mL,–,–,–,CCCCCC(C)NCc1coc(-c2cccc3ccccc23)n1 (configuration not stated),6.56 µg/mL,16 µg/mL
> 5 µg/mL,–,–,–,CCN(CC)Cc1coc(-c2ccc(Cl)cc2)n1,39.5 µg/mL,> 50 µg/mL
> 5 µg/mL,–,–,–,O=C(O)c1coc(-c2ccccc2)n1,> 50 µg/mL,> 50 µg/mL
> 5 µg/mL,–,–,–,CC1CC(NCc2coc(-c3sccc3Cl)n2)CC(C)(C)C1 (configuration not stated),> 50 µg/mL,> 50 µg/mL
1.37 µg/mL,11 µL/min/mg,79 min,–,CC(C)Oc1ccc(-c2nc(CN[C@@H]3C[C@@H]4C[C@H]([C@H]3C)C4(C)C)co2)cc1,1.9 µg/mL,–
1.48 µg/mL,–,–,–,CCCCCC(C)NCc1coc(-c2ccccc2OC(F)(F)F)n1 (configuration not stated),3.23 µg/mL,37 µg/mL
3.83 µg/mL,–,–,–,CCCCCC(C)NCc1coc(-c2cccs2)n1 (configuration not stated),13.5 µg/mL,> 50 µg/mL
